{
  "source": "patent US20060211698A1",
  "about": "“Bicyclic heteroaryl derivatives for treating viruses” (Genelabs, Inc., priority 2005, published 2006)",
  "data": [
    {"target": "T1, HCV-NS5b (Hepatitis C virus genotype 1b, UniProt Q9WMX2)", "T1 construct": "The cloned fragment was missing the C terminus 21 amino acid residues; (His)6 (C); made in house; host or cells: XL-1 cells (E. coli)", "experiment": "HCV-NS5b Enzyme Assay", "type": "biochemical", "conditions": "1 μM test compound; incorporation of [3H]-UTP, 37° C., 2 hours", "text": "The coding sequence of NS5b protein was cloned by PCR from pFKI389luc/NS3-3′/ET as described by Lohmann, V., et al. (1999) Science 285, 110-113 using the following primers: • […] (SEQ. ID. NO. 1) • […] (SEQ. ID. NO. 2)\nThe cloned fragment was missing the C terminus 21 amino acid residues. The cloned fragment is inserted into an IPTG-inducible expression plasmid that provides an epitope tag (His)6 at the carboxy terminus of the protein.\nThe recombinant enzyme was expressed in XL-1 cells and after induction of expression, the protein was purified using affinity chromatography on a nickel-NTA column. Storage condition is 10 mM Tris-HCl pH 7.5, 50 mM NaCl, 0.1 mM EDTA, 1 mM DTT, 20% glycerol at −20° C.\nThe polymerase activity was assayed by measuring incorporation of radiolabeled UTP into a RNA product using a biotinylated, heteropolymeric template, which includes a portion of the HCV genome. Typically, the assay mixture […] contains 10 mM Tris-HCl (pH 7.5), 5 mM MgCl2, 0.2 mM EDTA, 10 mM KCl, 1 unit/μL RNAsin. 1 mM DTT, 10 μM each of NTP, including [^3H]-UTP, and 10 ng/μL biotinylated heteropolymeric template. 20× test compound in 2 μl's was then added as a 100% DMSO solution to achieve a final DMSO concentration of 5%. For IC50 determination a 10-point dose response was used. The compounds were serial diluted 2-fold […]. Typically for IC50's, compounds were tested starting at 50 uM or 2 μm depending on the potency. Reactions were started with addition of 10×NS5B in 4 μl's and allowed to incubate at 37° C. for 2 hours. Reactions were quenched with 8 μL of 100 mM EDTA and reaction mixtures (30 μL) were transferred to streptavidin-coated scintillation proximity microtiter plates (FlashPlates) and incubated at 4° C. overnight. Incorporation of radioactivity was determined by scintillation counting (cpm). The % Inhibition at a particular concentration was determined using the following equation, % Inhibition=100−[100*(cpm with inhibitor−bg)/(cpm with no inhibitor−bg)] where bg was the background with no enzyme.", "units": {"% inhibition @ 1 μM": "%", "inhibition at 1 µM": "%"}, "values": [
      {"smiles": "O=C(O)c1ccc2c(C3CCCCC3)c(-c3ccc4nc(-c5ccco5)ccc4c3)n(CC(=O)N3CCOCC3)c2c1", "note": "[Compound 222, 1-[N-morpholinocarbonylmethyl]-2-(2-furan-2-yl-quinolin-6-yl)-3-cyclohexyl-1H-indole-6-carboxylic acid]", "% inhibition @ 1 μM": 92.3},
      {"smiles": "COc1ccc(-c2ccc(Cl)cc2)c(-c2ccc3cc(-c4c(C5CCCCC5)c5ccc(C(=O)O)cc5n4CC(=O)O)ccc3n2)c1", "note": "[Compound 202, 1-carboxymethyl-2-[2-(4′-chloro-4-methoxy-biphenyl-2-yl)-quinolin-6-yl]-3-cyclohexyl-1H-indole-6-carboxylic acid]", "inhibition at 1 µM": 98.3},
      {"smiles": "COc1ccc(-c2ccc(Cl)cc2)c(-c2ccc3cc(-c4[nH]c5cc(C(=O)O)ccc5c4C4CCCCC4)ccc3n2)c1", "note": "[Compound 200, 2-[2-(4′-chloro-4-methoxy-biphenyl-2-yl)-quinolin-6-yl]-3-cyclohexyl-1H-indole-6-carboxylic acid]", "inhibition at 1 µM": 96.2},
      {"smiles": "Cc1nc(C)c(-c2ccc3cc(-c4c(C5CCCCC5)c5ccc(C(=O)O)cc5n4CC(=O)O)ccc3n2)s1", "note": "[Compound 211, 1-[carboxymethyl]-2-[2-(2,4-dimethylthiazol-5-yl)-quinolin-6-yl]-3-cyclohexyl-1H-indole-6-carboxylic acid]", "inhibition at 1 µM": 91},
      {"smiles": "O=C(O)c1ccc2c(C3CCCCC3)c(-c3ccc(-c4cccc([N+](=O)[O-])c4)cc3)n(CC(=O)N3CCOCC3)c2c1", "note": "[Compound 310, 3-Cyclohexyl-2-(3′-nitro-biphenyl-4-yl)-1-(2-morpholin-4-yl-2-oxo-ethyl)-1H-indole-6-carboxylic acid]", "inhibition at 1 µM": 99.6},
      {"smiles": "O=C(O)c1ccc2c(C3CCCCC3)c(-c3ccc4nc(-c5ccc(C(F)(F)F)cc5)ccc4c3)n(CC(=O)N3CCOCC3)c2c1", "note": "[Compound 263, 3-Cyclohexyl-1-(2-morpholin-4-yl-2-oxo-ethyl)-2-[2-(4-trifluoromethyl-phenyl)-quinolin-6-yl]-1H-indole-6-carboxylic acid]", "inhibition at 1 µM": 94.4},
      {"smiles": "Cc1nc(C)c(-c2ccc3cc(-c4c(C5CCCCC5)c5ccc(C(=O)NCCc6nnn[nH]6)cc5n4CC(=O)N4CCOCC4)ccc3n2)s1", "note": "[Compound 245, 3-Cyclohexyl-2-[2-(2,4-dimethyl-thiazol-5-yl)-quinolin-6-yl]-1-(2-morpholin-4-yl-2-oxo-ethyl)-1H-indole-6-carboxylic acid [2-(1H-tetrazol-5-yl)-ethyl]-amide]", "inhibition at 1 µM": 91.3},
      {"smiles": "Cc1cccc(-c2ccc3cc(-c4c(C5CCCCC5)c5ccc(C(=O)O)cc5n4CC(=O)N4CCOCC4)ccc3c2)c1", "note": "[Compound 321, 3-Cyclohexyl-1-(2-morpholin-4-yl-2-oxo-ethyl)-2-(6-m-tolyl-naphthalen-2-yl)-1H-indole-6-carboxylic acid]", "inhibition at 1 µM": 98.2},
      {"smiles": "Cc1nc(C(F)(F)F)sc1-c1ccc2cc(-c3c(C4CCCCC4)c4ccc(C(=O)O)cc4n3CC(=O)N3CCOCC3)ccc2n1", "note": "[Compound 248, 3-Cyclohexyl-2-[2-(4-methyl-2-trifluoromethyl-thiazol-5-yl)-quinolin-6-yl]-1-(2-morpholin-4-yl-2-oxo-ethyl)-1H-indole-6-carboxylic acid]", "inhibition at 1 µM": 95.2},
      {"smiles": "O=C(O)c1ccc2c(C3CCCCC3)c(-c3ccc4nc(-c5cnccn5)ccc4c3)n(CC(=O)N3CCOCC3)c2c1", "note": "[Compound 218, 1-[N-morpholinocarbonylmethyl]-2-[2-(pyrazin-2-yl)-quinolin-6-yl]-3-cyclohexyl-1H-indole-6-carboxylic acid]", "% inhibition @ 1 μM": 96.2},
      {"smiles": "COc1cccc(Cn2c(-c3ccc4nc(-c5sc(C)nc5C)ccc4c3)c(C3CCCCC3)c3ccc(C(=O)O)cc32)c1", "note": "[Compound 293, 3-Cyclohexyl-2-[2-(2,4-dimethyl-thiazol-5-yl)-quinolin-6-yl]-1-(3-methoxy-benzyl)-1H-indole-6-carboxylic acid]", "inhibition at 1 µM": 69.2},
      {"smiles": "Cc1nc(C)c(-c2ccc3cc(-c4c(C5CCCCC5)c5ccc(C(=O)NCCC#N)cc5n4CC(=O)N4CCOCC4)ccc3n2)s1", "note": "[Compound 242, 3-Cyclohexyl-2-[2-(2,4-dimethyl-thiazol-5-yl)-quinolin-6-yl]-1-(2-morpholin-4-yl-2-oxo-ethyl)-1H-indole-6-carboxylic acid (2-cyano-ethyl)-amide]", "inhibition at 1 µM": 63.6},
      {"smiles": "N#Cc1cccc(-c2ccc(-c3c(C4CCCCC4)c4ccc(C(=O)O)cc4n3CC(=O)N3CCOCC3)cc2)c1", "note": "[Compound 306, 2-(3′-Cyano-biphenyl-4-yl)-3-cyclohexyl-1-(2-morpholin-4-yl-2-oxo-ethyl)-1H-indole-6-carboxylic acid]", "inhibition at 1 µM": 97.8},
      {"smiles": "Cc1nc(C)c(-c2ccc3cc(-c4c(C5CCCCC5)c5ccc(C(=O)O)cc5n4CC(=O)N4CCC(C(=O)O)CC4)ccc3n2)s1", "note": "[Compound 241, 1-[2-(4-Carboxy-piperidin-1-yl)-2-oxo-ethyl]-3-cyclohexyl-2-[2-(2,4-dimethyl-thiazol-5-yl)-quinolin-6-yl]-1H-indole-6-carboxylic acid]", "inhibition at 1 µM": 94.1},
      {"smiles": "COC(=O)c1ccc2c(C3CCCCC3)c(-c3ccc4nc(-c5cc(OC)ccc5-c5ccc(Cl)cc5)ccc4c3)n(CC(=O)O)c2c1", "note": "[Compound 201, 1-carboxymethyl-2-[2-(4′-chloro-4-methoxy-biphenyl-2-yl)-quinolin-6-yl]-3-cyclohexyl-1H-indole-6-carboxylic acid methyl ester]", "inhibition at 1 µM": 77.7},
      {"smiles": "Cc1csc(-c2ccc3cc(-c4c(C5CCCCC5)c5ccc(C(=O)O)cc5n4CC(=O)N4CCOCC4)ccc3n2)c1", "note": "[Compound 234, 3-Cyclohexyl-2-[2-(4-methyl-thiophen-2-yl)-quinolin-6-yl]-1-(2-morpholin-4-yl-2-oxo-ethyl)-1H-indole-6-carboxylic acid]", "inhibition at 1 µM": 97.4},
      {"smiles": "NC(=O)c1cc(-c2ccc3cc(-c4c(C5CCCCC5)c5ccc(C(=O)O)cc5n4CC(=O)O)ccc3n2)ccc1O", "note": "[Compound 208, 1-carboxylmethyl-2-[2-(3-Carbamoyl-4-hydroxy-phenyl)-quinolin-6-yl]-3-cyclohexyl-1H-indole-6-carboxylic acid]", "inhibition at 1 µM": 84.5},
      {"smiles": "O=C(O)c1ccc2c(C3CCCCC3)c(-c3ccc4ncc(-c5ccccc5)nc4c3)n(CC(=O)N3CCOCC3)c2c1", "note": "[Compound 329, 3-Cyclohexyl-1-(2-morpholin-4-yl-2-oxo-ethyl)-2-(3-phenyl-quinoxalin-6-yl)-1H-indole-6-carboxylic acid]", "inhibition at 1 µM": 99.8},
      {"smiles": "Cc1nc(C)c(-c2ccc3cc(-c4c(C5CCCCC5)c5ccc(C(=O)O)cc5n4Cc4ccccc4)ccc3n2)s1", "note": "[Compound 287, 1-Benzyl-3-cyclohexyl-2-[2-(2,4-dimethyl-thiazol-5-yl)-quinolin-6-yl]-1H-indole-6-carboxylic acid]", "inhibition at 1 µM": 95.2},
      {"smiles": "Cc1nc(C)c(-c2ccc3cc(-c4c(C5CCCCC5)c5ccc(C(=O)O)cc5n4Cc4ccc(C(=O)O)cc4)ccc3n2)s1", "note": "[Compound 292, 1-(4-Carboxy-benzyl)-3-cyclohexyl-2-[2-(2,4-dimethyl-thiazol-5-yl)-quinolin-6-yl]-1H-indole-6-carboxylic acid]", "inhibition at 1 µM": 98.7},
      {"smiles": "Cc1nc(C)c(-c2ccc3cc(-c4c(C5CCCCC5)c5ccc(C(=O)O)cc5n4CC(=O)N4CCCC4C)ccc3n2)s1", "note": "(stereo not drawn) [Compound 277, 3-Cyclohexyl-2-[2-(2,4-dimethyl-thiazol-5-yl)-quinolin-6-yl]-1-[2-(2-methyl-pyrrolidin-1-yl)-2-oxo-ethyl]-1H-indole-6-carboxylic acid]", "inhibition at 1 µM": 96.3}
    ]}
  ]
}
